# Laboratory results taken from patent publication US20140275156A1, “FLAVONOID COMPOUNDS, AND METHODS OF USE THEREOF” (NEUPROTECT PTY LTD, priority 2011, published 2014).
# Assays:
# [1] = in vitro studies (Wang et al., British Journal of Pharmacology (2004) 142, 443-452); cited from earlier work
# [2] = tested on: H9C2 rat myoblasts; test: Cytoprotection in H9C2 myoblasts; format: cell-based
# Description: (§1) Cardiac myocytes were plated on collagen-coated dishes in serum containing media Dulbecco's modified Eagle's medium/Medium 199 (4:1 v/v) containing 10% (v/v) horse serum, 5% (v/v) fetal calf serum, and penicillin/streptomycin (100 units/ml). Murine skeletal myoblast (C2C12) or rat cardiac myoblasts (H9C2) were maintained in DMEM supplemented with 10% (v/v) fetal calf serum and 100 U/ml penicillin-streptomycin. Cells were incubated overnight at 37° C. in a 5% CO2 incubator prior to the experiment. Cells were pre-treated with flavanols for 30 min prior to stress treatments. Following pre-treatment, cells were stimulated by the addition of H2O2 (1 mM), sorbitol (0.5 M) or arsenite (300 μM). DMSO (0.1% v/v) was used as a vehicle control. Following treatment, cells were assessed for viability or protein lysates prepared for immunoblot analysis.
# (§2) To define the protective and kinase modulatory properties of the compounds of the certain embodiments, their effects in greater detail in vitro. The protection of cultured C2C12 murine myoblasts was evaluated against detrimental stress stimuli using an XTT assay of cell viability. In a time-course of oxidative damage, it was observed that 2 h treatment of H2O2 (0.5 or 1.0 mM) reduced myoblast viability to 38.5+2.0% and 31.9+0.8%, respectively, compared with control cells without H2O2 treatment.
# [3] = tested on: primary neonatal rat cardiac myocytes; test: Cytoprotection in primary cardiac myocytes; format: cell-based
# Description: as §1, §2
smiles,measurement,setting,value
"O=c1c(O)c(-c2ccc(O)c(O)c2)oc2ccccc12 [DiOHF, 3′,4′-dihydroxy flavonol]",infarct and injury associated with myocardial ischaemia and reperfusion,[1],reduce infarct and injury
same,protection against stress,[2],similarly protective
same,protection against stress,[3],similarly protective
